The text below walks through data of patent EP4772500A1, “NOVEL ISOXAZOLE COMPOUND AS TM4SF5-SPECIFIC INHIBITOR AND USE THEREOF” (Seoul National University R&DB Foundation, priority 2023, dated 2025).

The target of test [1] is T1, Strep-TM4SF5 obtained from HEK293FT (Homo sapiens, UniProt O14894).
T1 construct: expressed in transfected cells; host or cells: HEK293FT, transient transfection (48 h); protein captured on streptavidin agarose from the cell extract
T1 sequence (O14894 1-197): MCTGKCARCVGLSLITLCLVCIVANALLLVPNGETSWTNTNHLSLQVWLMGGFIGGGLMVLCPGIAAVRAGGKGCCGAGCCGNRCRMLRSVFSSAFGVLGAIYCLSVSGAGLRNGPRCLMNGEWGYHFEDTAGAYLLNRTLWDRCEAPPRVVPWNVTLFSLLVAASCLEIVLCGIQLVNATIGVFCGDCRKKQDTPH
The experiment in a line: Binding of 14C-labelled ST-5-002 to pulled-down Strep-TM4SF5. The protocol: (§1) For Huh7KO cells, stable cell lines were established by infecting with a retrovirus inducing the expression of pBabe-HA-EV or pBabe-HA-TM4SF5. Cell extracts were obtained, and extracts containing 0.2 or 0.25 mg of protein were reacted with an anti-HA antibody and HA-tagged TM4SF5, or with streptavidin agarose resin for Strep-PD-L1 or Strep-TM4SF5 at 4°C for 2 hours for pulldown. Subsequently, in the presence or absence of cold ST-5-002 (400 µM), the samples were treated with ^14C-labelled ST-5-002 (10 or 25 µM) and reacted at 4°C for 1 hour, after which radioactive isotope values were repeatedly measured using a TriCarb scintillation counter (PerkinElmer, Waltham, MA).
(§2) After culturing HEK293FT cells transfected with Strep-EV or Strep-TM4SF5 expression vectors, or Huh7KO cells stably expressing pBabe-HA-EV or pBabe-HA-TM4SF5, cell extracts were obtained. Extracts containing 1 mg of protein were pulled down by reacting with streptavidin agarose resin for Strep-tagged TM4SF5 or with an anti-HA antibody for HA-tagged TM4SF5 at 4°C for 4 hours. The pulled-down proteins were treated with ^14C-labelled ST-5-002 at various concentrations (10 nM, 100 nM, 1 µM, 5 µM, 10 µM, 50 µM) and reacted at 4°C for 1 hour, after which radioactive isotope values were repeatedly measured using a TriCarb scintillation counter (PerkinElmer, Waltham, MA). The EC50 was calculated by normalizing the average radioactive isotope value of TM4SF5 obtained through the measurements by dividing it by the average value of EV.
(a) Expression vectors for a control vector, TM4SF1, TM4SF5 WT, and R113Q, C118/145A, H127A, and N138A mutants of TM4SF5 were injected into the HEK293FT cell line, which was confirmed not to express TM4SF5, and allowed to express for 48 hours. (b) Huh7KO cell lines, in which TM4SF5 was knocked out in Huh7, were stably infected with a retrovirus encoding pBabe-EV or pBabe-TM4SF5-HA. […] For the experimental samples of each condition, radioactive isotope values were repeatedly measured using a TriCarb scintillation counter (PerkinElmer, Waltham, MA).

The target of test [2] is T2, HA-TM4SF5 obtained from Huh7KO-HA-TM4SF5 (Homo sapiens, UniProt O14894).
T2 construct: expressed in transfected cells; host or cells: Huh7KO (TM4SF5 knockout Huh7) stably infected with pBabe-HA-TM4SF5 retrovirus; captured with anti-HA antibody
T2 sequence (O14894 1-197): T1 sequence (O14894 1-197)
The experiment in a line: Binding of 14C-labelled ST-5-002 to pulled-down HA-TM4SF5. The protocol: as §1
as §2, with “Extracts containing 1 mg of protein were pulled down by reacting with streptavidin agarose resin for Strep-tagged TM4SF5 or with an anti-HA antibody for HA-tagged TM4SF5 at 4°C for 4 hours.” left out, “EV. […]” for “EV.”

Where “and” joins values, the source holds several entries; their conditions need not be identical. Equal values may be shown once. Read-outs that look alike come from different tables or passages of the source.

The term EC50 denotes the concentration needed to bring the measured effect to its halfway point. Consider `Cc1ccc(C(=O)Nc2ccc(-c3cc(-c4ccc(O)cc4)no3)cc2)cc1` [ST-5-002, N-(4-(3-(4-hydroxyphenyl)isoxazole-5-yl)phenyl)-4-methylbenzamide], for which the concentration for a half-maximal effect (EC50) was 8870 nM in test [1] (14C-labelled ST-5-002, Strep-TM4SF5, 4°C, 1 hour (FIG. 19a), read-out: EC50 of binding to TM4SF5); 850 to 8800 nM in test [1] (range depending on the cell source and the type of tag (Strep-TM4SF5 and HA-TM4SF5), read-out: EC50 values of binding to TM4SF5); 850 nM and 875 nM in test [2] (14C-labelled ST-5-002, HA-TM4SF5, 4°C, 1 hour (FIG. 19b)). Further, the “binding of 14C-labelled ST-5-002 compared to the control and TM4SF1” value in test [1] (Strep-TM4SF5 from HEK293FT (FIG. 19a)) is on record as “bound”. Also, the “binding of 14C-labelled ST-5-002 to HA-TM4SF5” value in test [2] (simultaneous treatment with cold ST-5-002 (400 µM) (FIG. 19b)) is “decreased”.
